# According to the NIST ThermoML archive (doi:10.1016/j.fluid.2014.06.021):
# Numbers after ± are expanded uncertainties.
# What was measured:
# [1] = 101.33 kPa, Liquid, Vibrating tube method
# [2] = activity coefficient (dimensionless); of the first substance listed, at infinite dilution; xn = mol fraction of the nth substance listed; conditions: 101.33 kPa, Liquid, Chromatography, x1 = 0
compound,measurement,setting,value
C[n+]1ccn(CCCCS(=O)(=O)O)c1.O=S(=O)([N-]S(=O)(=O)C(F)(F)F)C(F)(F)F,mass density,[1]; 298.15 K,1577 ± 2 kg/m3
same,mass density,[1]; 299.45 K,1575.8 ± 2.3 kg/m3
same,mass density,[1]; 300.75 K,1574.9 ± 2.3 kg/m3
same,mass density,[1]; 302.15 K,1573.7 ± 2.3 kg/m3
same,mass density,[1]; 303.45 K,1572.7 ± 2.3 kg/m3
same,mass density,[1]; 304.75 K,1571.5 ± 2.3 kg/m3
same,mass density,[1]; 305.85 K,1570.5 ± 2.3 kg/m3
same,mass density,[1]; 307.15 K,1569.2 ± 2.3 kg/m3
same,mass density,[1]; 308.65 K,1568 ± 2 kg/m3
same,mass density,[1]; 310.35 K,1566.7 ± 2.2 kg/m3
same,mass density,[1]; 311.75 K,1565.5 ± 2.2 kg/m3
same,mass density,[1]; 313.05 K,1564.3 ± 2.2 kg/m3
same,mass density,[1]; 314.45 K,1563.2 ± 2.2 kg/m3
same,mass density,[1]; 315.85 K,1562 ± 2 kg/m3
same,mass density,[1]; 317.25 K,1560.9 ± 2.2 kg/m3
same,mass density,[1]; 318.75 K,1559.8 ± 2.2 kg/m3
same,mass density,[1]; 320.05 K,1558.8 ± 2.2 kg/m3
same,mass density,[1]; 321.45 K,1557.7 ± 2.2 kg/m3
same,mass density,[1]; 322.85 K,1556.4 ± 2.2 kg/m3
same,mass density,[1]; 324.65 K,1554.8 ± 2.2 kg/m3
same,mass density,[1]; 326.65 K,1553.4 ± 2.2 kg/m3
same,mass density,[1]; 328.45 K,1551.8 ± 2.2 kg/m3
same,mass density,[1]; 338.55 K,1543.9 ± 2.2 kg/m3
same,mass density,[1]; 343.5 K,1539.7 ± 2.2 kg/m3
C[n+]1ccn(CCCCS(=O)(=O)O)c1.O=S(=O)([O-])C(F)(F)F,mass density,[1]; 298.15 K,1478.4 ± 2 kg/m3
same,mass density,[1]; 299.45 K,1478 ± 2 kg/m3
same,mass density,[1]; 300.75 K,1477 ± 2 kg/m3
same,mass density,[1]; 302.15 K,1476.1 ± 2 kg/m3
same,mass density,[1]; 303.45 K,1475.3 ± 2 kg/m3
same,mass density,[1]; 304.75 K,1474.7 ± 2 kg/m3
same,mass density,[1]; 305.85 K,1473.8 ± 2 kg/m3
same,mass density,[1]; 307.15 K,1472.8 ± 2 kg/m3
same,mass density,[1]; 308.65 K,1472 ± 2 kg/m3
same,mass density,[1]; 310.35 K,1470.9 ± 2 kg/m3
same,mass density,[1]; 311.75 K,1470.1 ± 2 kg/m3
same,mass density,[1]; 313.05 K,1469.3 ± 2 kg/m3
same,mass density,[1]; 314.45 K,1468.2 ± 2 kg/m3
same,mass density,[1]; 315.85 K,1467.3 ± 2 kg/m3
same,mass density,[1]; 317.25 K,1466.3 ± 2 kg/m3
same,mass density,[1]; 318.75 K,1465.6 ± 2 kg/m3
same,mass density,[1]; 320.05 K,1464.8 ± 2 kg/m3
same,mass density,[1]; 321.45 K,1463.7 ± 2 kg/m3
same,mass density,[1]; 322.85 K,1462.7 ± 1.9 kg/m3
same,mass density,[1]; 324.65 K,1461.5 ± 1.9 kg/m3
same,mass density,[1]; 326.65 K,1461.3 ± 1.9 kg/m3
same,mass density,[1]; 328.45 K,1460.2 ± 1.9 kg/m3
same,mass density,[1]; 338.55 K,1453.7 ± 1.9 kg/m3
same,mass density,[1]; 343.5 K,1450.6 ± 1.9 kg/m3
C[n+]1ccn(CCCCS(=O)(=O)O)c1.O=S(=O)([O-])O [1-methyl-3-(4-sulfobutyl)-imidazolium hydrogensulfate],mass density,[1]; 298.15 K,1437.7 ± 1.9 kg/m3
same,mass density,[1]; 299.45 K,1436.9 ± 1.9 kg/m3
same,mass density,[1]; 300.75 K,1436.3 ± 1.9 kg/m3
same,mass density,[1]; 302.15 K,1435.4 ± 1.9 kg/m3
same,mass density,[1]; 303.45 K,1434.8 ± 1.9 kg/m3
same,mass density,[1]; 304.75 K,1434 ± 2 kg/m3
same,mass density,[1]; 305.85 K,1433.3 ± 1.9 kg/m3
same,mass density,[1]; 307.15 K,1432.4 ± 1.9 kg/m3
same,mass density,[1]; 308.65 K,1431.7 ± 1.9 kg/m3
same,mass density,[1]; 310.35 K,1430.8 ± 1.9 kg/m3
same,mass density,[1]; 311.75 K,1430 ± 2 kg/m3
same,mass density,[1]; 313.05 K,1429.3 ± 1.9 kg/m3
same,mass density,[1]; 314.45 K,1428.5 ± 1.9 kg/m3
same,mass density,[1]; 315.85 K,1427.8 ± 1.9 kg/m3
same,mass density,[1]; 317.25 K,1426.9 ± 1.8 kg/m3
same,mass density,[1]; 318.75 K,1426.4 ± 1.8 kg/m3
same,mass density,[1]; 320.05 K,1425.8 ± 1.8 kg/m3
same,mass density,[1]; 321.45 K,1424.7 ± 1.8 kg/m3
same,mass density,[1]; 322.85 K,1423.9 ± 1.8 kg/m3
same,mass density,[1]; 324.65 K,1423.2 ± 1.8 kg/m3
same,mass density,[1]; 326.65 K,1422.1 ± 1.8 kg/m3
same,mass density,[1]; 328.45 K,1421.2 ± 1.8 kg/m3
same,mass density,[1]; 338.55 K,1414.5 ± 1.8 kg/m3
same,mass density,[1]; 343.5 K,1411.7 ± 1.8 kg/m3
CCCC(C)=O [pentan-2-one] + C[n+]1ccn(CCCCS(=O)(=O)O)c1.O=S(=O)([O-])O,activity coefficient,[2]; 323.15 K,13.4 ± 0.92
same,activity coefficient,[2]; 333.15 K,13.2 ± 0.9
same,activity coefficient,[2]; 343.15 K,12.5 ± 0.85
CCC(=O)CC [pentan-3-one] + C[n+]1ccn(CCCCS(=O)(=O)O)c1.O=S(=O)([N-]S(=O)(=O)C(F)(F)F)C(F)(F)F,activity coefficient,[2]; 323.15 K,0.54 ± 0.04
same,activity coefficient,[2]; 333.15 K,0.64 ± 0.04
same,activity coefficient,[2]; 343.15 K,0.77 ± 0.05
CCC(=O)CC [pentan-3-one] + C[n+]1ccn(CCCCS(=O)(=O)O)c1.O=S(=O)([O-])C(F)(F)F,activity coefficient,[2]; 323.15 K,2.31 ± 0.16
same,activity coefficient,[2]; 333.15 K,2.33 ± 0.16
same,activity coefficient,[2]; 343.15 K,2.44 ± 0.17
CCC(=O)CC [pentan-3-one] + C[n+]1ccn(CCCCS(=O)(=O)O)c1.O=S(=O)([O-])O,activity coefficient,[2]; 323.15 K,14.2 ± 0.97
same,activity coefficient,[2]; 333.15 K,13.8 ± 0.94
same,activity coefficient,[2]; 343.15 K,13.2 ± 0.9
CCCO [propan-1-ol] + C[n+]1ccn(CCCCS(=O)(=O)O)c1.O=S(=O)([N-]S(=O)(=O)C(F)(F)F)C(F)(F)F,activity coefficient,[2]; 333.15 K,0.13 ± 0.03
same,activity coefficient,[2]; 343.15 K,0.16 ± 0.03
CC(C)O [propan-2-ol] + C[n+]1ccn(CCCCS(=O)(=O)O)c1.O=S(=O)([N-]S(=O)(=O)C(F)(F)F)C(F)(F)F,activity coefficient,[2]; 333.15 K,0.09 ± 0.03
same,activity coefficient,[2]; 343.15 K,0.11 ± 0.03
ClC(Cl)(Cl)Cl [tetrachloromethane] + C[n+]1ccn(CCCCS(=O)(=O)O)c1.O=S(=O)([N-]S(=O)(=O)C(F)(F)F)C(F)(F)F,activity coefficient,[2]; 323.15 K,7.71 ± 0.53
same,activity coefficient,[2]; 333.15 K,7.99 ± 0.54
same,activity coefficient,[2]; 343.15 K,8.1 ± 0.6
ClC(Cl)(Cl)Cl [tetrachloromethane] + C[n+]1ccn(CCCCS(=O)(=O)O)c1.O=S(=O)([O-])C(F)(F)F,activity coefficient,[2]; 323.15 K,12.4 ± 0.85
same,activity coefficient,[2]; 333.15 K,12.1 ± 0.83
same,activity coefficient,[2]; 343.15 K,11.4 ± 0.78
CCCCCCCCCCCCCC [tetradecane] + C[n+]1ccn(CCCCS(=O)(=O)O)c1.O=S(=O)([N-]S(=O)(=O)C(F)(F)F)C(F)(F)F,activity coefficient,[2]; 323.15 K,1180 ± 81
same,activity coefficient,[2]; 333.15 K,1060 ± 73
same,activity coefficient,[2]; 343.15 K,941 ± 65
CCCCCCCCCCCCCC [tetradecane] + C[n+]1ccn(CCCCS(=O)(=O)O)c1.O=S(=O)([O-])O,activity coefficient,[2]; 323.15 K,1910 ± 130
same,activity coefficient,[2]; 333.15 K,1750 ± 120
same,activity coefficient,[2]; 343.15 K,1680 ± 120
c1ccsc1 [thiophene] + C[n+]1ccn(CCCCS(=O)(=O)O)c1.O=S(=O)([N-]S(=O)(=O)C(F)(F)F)C(F)(F)F,activity coefficient,[2]; 323.15 K,0.83 ± 0.05
same,activity coefficient,[2]; 333.15 K,0.83 ± 0.05
same,activity coefficient,[2]; 343.15 K,0.82 ± 0.05
c1ccsc1 [thiophene] + C[n+]1ccn(CCCCS(=O)(=O)O)c1.O=S(=O)([O-])C(F)(F)F,activity coefficient,[2]; 323.15 K,2.24 ± 0.15
same,activity coefficient,[2]; 333.15 K,2.23 ± 0.15
same,activity coefficient,[2]; 343.15 K,2.22 ± 0.15
c1ccsc1 [thiophene] + C[n+]1ccn(CCCCS(=O)(=O)O)c1.O=S(=O)([O-])O,activity coefficient,[2]; 323.15 K,6.56 ± 0.45
same,activity coefficient,[2]; 333.15 K,6.43 ± 0.44
same,activity coefficient,[2]; 343.15 K,6.13 ± 0.42
Cc1ccccc1 [toluene] + C[n+]1ccn(CCCCS(=O)(=O)O)c1.O=S(=O)([N-]S(=O)(=O)C(F)(F)F)C(F)(F)F,activity coefficient,[2]; 323.15 K,3.1 ± 0.2
same,activity coefficient,[2]; 333.15 K,3.28 ± 0.22
same,activity coefficient,[2]; 343.15 K,3.31 ± 0.23
Cc1ccccc1 [toluene] + C[n+]1ccn(CCCCS(=O)(=O)O)c1.O=S(=O)([O-])C(F)(F)F,activity coefficient,[2]; 323.15 K,5.74 ± 0.39
same,activity coefficient,[2]; 333.15 K,5.54 ± 0.38
same,activity coefficient,[2]; 343.15 K,5.54 ± 0.38
Cc1ccccc1 [toluene] + C[n+]1ccn(CCCCS(=O)(=O)O)c1.O=S(=O)([O-])O,activity coefficient,[2]; 323.15 K,28.3 ± 1.9
same,activity coefficient,[2]; 333.15 K,26.6 ± 1.8
same,activity coefficient,[2]; 343.15 K,24.9 ± 1.7
ClC(Cl)Cl [trichloromethane] + C[n+]1ccn(CCCCS(=O)(=O)O)c1.O=S(=O)([N-]S(=O)(=O)C(F)(F)F)C(F)(F)F,activity coefficient,[2]; 323.15 K,1.81 ± 0.12
same,activity coefficient,[2]; 333.15 K,1.83 ± 0.12
same,activity coefficient,[2]; 343.15 K,1.86 ± 0.13
ClC(Cl)Cl [trichloromethane] + C[n+]1ccn(CCCCS(=O)(=O)O)c1.O=S(=O)([O-])C(F)(F)F,activity coefficient,[2]; 323.15 K,2.12 ± 0.14
same,activity coefficient,[2]; 333.15 K,2.18 ± 0.15
same,activity coefficient,[2]; 343.15 K,2.19 ± 0.15
ClC(Cl)Cl [trichloromethane] + C[n+]1ccn(CCCCS(=O)(=O)O)c1.O=S(=O)([O-])O,activity coefficient,[2]; 323.15 K,6.65 ± 0.45
same,activity coefficient,[2]; 333.15 K,6.73 ± 0.46
same,activity coefficient,[2]; 343.15 K,6.84 ± 0.47
CCCCCCCCCCCCC [tridecane] + C[n+]1ccn(CCCCS(=O)(=O)O)c1.O=S(=O)([N-]S(=O)(=O)C(F)(F)F)C(F)(F)F,activity coefficient,[2]; 323.15 K,1080 ± 75
same,activity coefficient,[2]; 333.15 K,911 ± 63
same,activity coefficient,[2]; 343.15 K,832 ± 57
CCCCCCCCCCCCC [tridecane] + C[n+]1ccn(CCCCS(=O)(=O)O)c1.O=S(=O)([O-])C(F)(F)F,activity coefficient,[2]; 323.15 K,1940 ± 130
same,activity coefficient,[2]; 333.15 K,1550 ± 110
same,activity coefficient,[2]; 343.15 K,1220 ± 84
CCCCCCCCCCCCC [tridecane] + C[n+]1ccn(CCCCS(=O)(=O)O)c1.O=S(=O)([O-])O,activity coefficient,[2]; 323.15 K,1540 ± 110
same,activity coefficient,[2]; 333.15 K,1410 ± 97
same,activity coefficient,[2]; 343.15 K,1350 ± 93
CCCCCCCCCCC [undecane] + C[n+]1ccn(CCCCS(=O)(=O)O)c1.O=S(=O)([N-]S(=O)(=O)C(F)(F)F)C(F)(F)F,activity coefficient,[2]; 323.15 K,515 ± 35
same,activity coefficient,[2]; 333.15 K,448 ± 31
same,activity coefficient,[2]; 343.15 K,425 ± 29
CCCCCCCCCCC [undecane] + C[n+]1ccn(CCCCS(=O)(=O)O)c1.O=S(=O)([O-])O,activity coefficient,[2]; 323.15 K,1490 ± 100
same,activity coefficient,[2]; 333.15 K,1370 ± 94
same,activity coefficient,[2]; 343.15 K,1310 ± 90
